Assay results reported in ChEMBL document CHEMBL3611969, “The effect of complexation of 3-formylrifamycin SV macrocyclic ether derivatives with metal cations and small nitrogen-containing organic molecules on antibacterial activity against S. aureus and S. epidermidis” (Bioorg Med Chem Lett, 2015).
Values after ≈ are worked out from the molar mass of the structure shown.

Key:
Staphylococcus aureus [1] = test: Antibacterial activity against Staphylococcus aureus ATCC 6538 after 18 hrs by serial microdilution method; type: functional; conditions: ATCC 6538, 18 h
Staphylococcus aureus [2] = test: Antibacterial activity against Staphylococcus aureus ATCC 6538 after 18 hrs by serial microdilution method in presence of isoniazid; type: functional; conditions: ATCC 6538, 18 h
Staphylococcus aureus [3] = test: Antibacterial activity against Staphylococcus aureus ATCC 6538 after 18 hrs by serial microdilution method in presence of 2-chlorobenzylamine; type: functional; conditions: ATCC 6538, 18 h
Staphylococcus aureus [4] = test: Antibacterial activity against Staphylococcus aureus ATCC 6538 after 18 hrs by serial microdilution method in presence of 4-fluorobenzylamine; type: functional; conditions: ATCC 6538, 18 h
Staphylococcus aureus [5] = test: Antibacterial activity against Staphylococcus aureus ATCC 6538 after 18 hrs by serial microdilution method in presence of histamine; type: functional; conditions: ATCC 6538, 18 h
Staphylococcus aureus [6] = test: Antibacterial activity against Staphylococcus aureus ATCC 4163 after 18 hrs by serial microdilution method; type: functional; conditions: ATCC 4163, 18 h
Staphylococcus aureus [7] = test: Antibacterial activity against Staphylococcus aureus ATCC 4163 after 18 hrs by serial microdilution method in presence of 2-chlorobenzylamine; type: functional; conditions: ATCC 4163, 18 h
Staphylococcus aureus [8] = test: Antibacterial activity against Staphylococcus aureus ATCC 4163 after 18 hrs by serial microdilution method in presence of 4-fluorobenzylamine; type: functional; conditions: ATCC 4163, 18 h
Staphylococcus aureus [9] = test: Antibacterial activity against Staphylococcus aureus ATCC 4163 after 18 hrs by serial microdilution method in presence of isoniazid; type: functional; conditions: ATCC 4163, 18 h
Staphylococcus aureus [10] = test: Antibacterial activity against Staphylococcus aureus ATCC 4163 after 18 hrs by serial microdilution method in presence of histamine; type: functional; conditions: ATCC 4163, 18 h
Staphylococcus aureus [11] = test: Antibacterial activity against Staphylococcus aureus ATCC 25923 after 18 hrs by serial microdilution method; type: functional; conditions: ATCC 25923, 18 h
Staphylococcus aureus [12] = test: Antibacterial activity against Staphylococcus aureus ATCC 25923 after 18 hrs by serial microdilution method in presence of 2-chlorobenzylamine; type: functional; conditions: ATCC 25923, 18 h
Staphylococcus aureus [13] = test: Antibacterial activity against Staphylococcus aureus ATCC 25923 after 18 hrs by serial microdilution method in presence of 4-fluorobenzylamine; type: functional; conditions: ATCC 25923, 18 h
Staphylococcus aureus [14] = test: Antibacterial activity against Staphylococcus aureus ATCC 25923 after 18 hrs by serial microdilution method in presence of isoniazid; type: functional; conditions: ATCC 25923, 18 h
Staphylococcus aureus [15] = test: Antibacterial activity against Staphylococcus aureus ATCC 25923 after 18 hrs by serial microdilution method in presence of histamine; type: functional; conditions: ATCC 25923, 18 h
[16] = system: Staphylococcus epidermidis; test: Antibacterial activity against Staphylococcus epidermidis ATCC 12228 after 18 hrs by serial microdilution method; type: functional; conditions: ATCC 12228, 18 h
[17] = system: Staphylococcus epidermidis; test: Antibacterial activity against Staphylococcus epidermidis ATCC 12228 after 18 hrs by serial microdilution method in presence of 2-chlorobenzylamine; type: functional; conditions: ATCC 12228, 18 h
[18] = system: Staphylococcus epidermidis; test: Antibacterial activity against Staphylococcus epidermidis ATCC 12228 after 18 hrs by serial microdilution method in presence of 4-fluorobenzylamine; type: functional; conditions: ATCC 12228, 18 h
[19] = system: Staphylococcus epidermidis; test: Antibacterial activity against Staphylococcus epidermidis ATCC 12228 after 18 hrs by serial microdilution method in presence of isoniazid; type: functional; conditions: ATCC 12228, 18 h
[20] = system: Staphylococcus epidermidis; test: Antibacterial activity against Staphylococcus epidermidis ATCC 12228 after 18 hrs by serial microdilution method in presence of histamine; type: functional; conditions: ATCC 12228, 18 h
[21] = system: Staphylococcus epidermidis; test: Antibacterial activity against Staphylococcus epidermidis ATCC 49134 after 18 hrs by serial microdilution method; type: functional; conditions: ATCC 49134, 18 h
[22] = system: Staphylococcus epidermidis; test: Antibacterial activity against Staphylococcus epidermidis ATCC 49134 after 18 hrs by serial microdilution method in presence of 2-chlorobenzylamine; type: functional; conditions: ATCC 49134, 18 h
[23] = system: Staphylococcus epidermidis; test: Antibacterial activity against Staphylococcus epidermidis ATCC 49134 after 18 hrs by serial microdilution method in presence of 4-fluorobenzylamine; type: functional; conditions: ATCC 49134, 18 h
[24] = system: Staphylococcus epidermidis; test: Antibacterial activity against Staphylococcus epidermidis ATCC 49134 after 18 hrs by serial microdilution method in presence of isoniazid; type: functional; conditions: ATCC 49134, 18 h
[25] = system: Staphylococcus epidermidis; test: Antibacterial activity against Staphylococcus epidermidis ATCC 49134 after 18 hrs by serial microdilution method in presence of histamine; type: functional; conditions: ATCC 49134, 18 h
[26] = Solubility of the compound in water at pH 7; type: physicochemical
[27] = Octanol-water partition coefficient, log P of the compound by UV-vis method; type: physicochemical
[28] = Solubility of the compound in water at pH 7 in presence of histamine; type: physicochemical
[29] = Octanol-water partition coefficient, log P of the compound by UV-vis method in presence of histamine; type: physicochemical

SMILES: CO[C@H]1/C=C/O[C@@]2(C)Oc3c(C)c(O)c4c(O)c(c(CNc5ccc6c(c5)OCCOCCOCCOCCOCCO6)c(O)c4c3C2=O)NC(=O)/C(C)=C\C=C\[C@H](C)[C@H](O)[C@@H](C)[C@@H](O)[C@@H](C)[C@H](OC(C)=O)[C@@H]1C
- MIC (Staphylococcus aureus [1]): 2 µg/mL (≈ 1.93 µM)
- MIC (Staphylococcus aureus [2]): 1 µg/mL
- MIC (Staphylococcus aureus [3]): 0.25 µg/mL
- MIC (Staphylococcus aureus [4]): 0.25 µg/mL
- MIC (Staphylococcus aureus [5]): 0.125 µg/mL
- MIC (Staphylococcus aureus [6]): 2 µg/mL (≈ 1.93 µM)
- MIC (Staphylococcus aureus [7]): 0.25 µg/mL
- MIC (Staphylococcus aureus [8]): 0.25 µg/mL
- MIC (Staphylococcus aureus [9]): 1 µg/mL
- MIC (Staphylococcus aureus [10]): 0.125 µg/mL
- MIC (Staphylococcus aureus [11]): 2 µg/mL (≈ 1.93 µM)
- MIC (Staphylococcus aureus [12]): 0.25 µg/mL
- MIC (Staphylococcus aureus [13]): 0.25 µg/mL
- MIC (Staphylococcus aureus [14]): 1 µg/mL
- MIC (Staphylococcus aureus [15]): 0.125 µg/mL
- MIC [16]: 0.5 µg/mL (≈ 0.482 µM)
- MIC [17]: 0.25 µg/mL
- MIC [18]: 0.25 µg/mL
- MIC [19]: 0.5 µg/mL
- MIC [20]: 1.25 µg/mL
- MIC [21]: 0.5 µg/mL (≈ 0.482 µM)
- MIC [22]: 0.25 µg/mL
- MIC [23]: 0.25 µg/mL
- MIC [24]: 0.5 µg/mL
- MIC [25]: 0.125 µg/mL
- solubility [26]: 110 µg/mL (≈ 106 µM)
- logP [27]: 0.53
- solubility [28]: 410 µg/mL
- logP [29]: 0.69
